In US20260284076A1, “TESTOSTERONE AND DIFLUOROMETHYLORNITHINE COMBINATION THERAPY FOR PROSTATE CANCER” (The Johns Hopkins University, priority 2023, published 2026):
Where two headings read alike, the source gives them in different places.

Key:
patients with CRPC = conditions: cited from earlier work
[1] = tested on: patients with early CRPC (rising PSA and minimal bone disease); conditions: cited from earlier work
[2] = tested on: chronically castrated patients with rising PSA and CRPC; assay: Pilot study of BAT with oral etoposide, then second line therapy post-BAT; format: in vivo, human; conditions: post-BAT; for PSA decline upon re-challenge: agent previously progressed on
Text: Based on the preclinical results and potential mechanisms for growth inhibition that include androgen-induced double strand breaks and stabilization of AR preventing relicensing, we have conducted a pilot study evaluating the efficacy and safety of pharmacologic doses of testosterone to produce high dose T levels in conjunction with oral etoposide in chronically castrated patients with rising PSA and CRPC (37). Patients who had been continuously castrate for more than one year with minimal metastatic disease burden (≤5 total bone metastases and ≤10 total sites of metastases) and/or rising PSA were eligible. To achieve rapid cycling between high dose and near castrate serum T (i.e., BAT) patients received intramuscular injection of 400 mg testosterone cypionate every 28 days. For the first 3 cycles of therapy patients received BAT plus oral etoposide 100 mg po/day days 1-14 of a 28-day cycle. After 3 cycles PSA response and objective response were assessed. Those patients with a PSA that was declining from peak levels and no objective evidence of disease progression or worsening pain were continued on therapy. Given the toxicity associated with etoposide and the lack of clinical response in an earlier trial (38), patients who responded after 3 cycles of testosterone plus etoposide were continued on testosterone alone based on protocol amendment.

[3] = tested on: patients with CRPC progressing on Enza (Cohort A) or Abi (Cohort B); format: in vivo, human; conditions: re-exposed to agent progressed on before BAT
Text: The RESTORE study (NCT02090114) was an NIH sponsored Phase II study designed to assess the safety and efficacy of BAT in patients (n=30 per cohort) with CRPC progressing on Enza (Cohort A) or Abi (Cohort B), FIG. 18A (34,39). The primary endpoint of the first part of the study was to assess PSA response to BAT. Secondary endpoints included objective response, safety, and quality of life. The second part of the study was to determine in BAT could re-sensitize patients to repeat exposure to second line therapy that patients were progressing on prior to receiving BAT. Thus, patients progressing on Enza were re-exposed to Enza after BAT and similarly for Abi. Both arms of this study met the primary endpoint. PSA50 response to BAT was 30% in patient's post-Enza and 18% post-Abi, FIG. 18B. […] Overall duration of response to BAT and duration of response to re-exposure was longer in the post-Enza vs. post-Abi cohort. The PSAso response to re-exposure to Enza was 71% vs. only 21% for patients re-exposed to Abi, FIG. 19B (7). A third cohort was later added (Cohort C) for patients progressing on ADT alone. Overall, 90 patients were treated on this study over a 4-year period (2014-2018).

[4] = tested on: patients with advanced CRPC, long-term castrates; conditions: cited from earlier work
[5] = tested on: SKCaP-1R patient-derived xenograft tumors; assay: Global metabolomics of SKCaP-1R tumors; format: in vivo, castrated NSG mice; conditions: 14 days of treatment
[6] = tested on: MYC in LNCaP and VCaP cells; assay: MYC expression by western blot, RT-PCR, RNAseq; format: cell-based, human; conditions: to the level of SPA monotherapy
Text: FIG. 5A, FIG. 5B, FIG. 5C, FIG. 5D, and FIG. 5E show: FIG. 5A, MYC expression by IHC in a metastatic tumor biopsy from a patient before and after 3 months of BAT. FIG. 5B, Quantification of MYC protein expression from metastatic tumor biopsies from patients before and after 3 months of BAT color-coded by response (non-responder NR; responder R). […] Vinculin was used as a loading control. FIG. 5D, Principal component analysis of RNA and ATAC sequencing of LNCaP cells treated for 5 days with R1881 10 nM (SPA). […] Vinculin was used as a loading control;

LNCaP cells [7] = assay: Putrescine abundance by HPLC in cells and media; format: cell-based, human; conditions: 10 nM
Text: Vinculin was used as a loading control. FIG. 2F, Polyamine synthesis pathway.

LNCaP cells [8] = assay: Colony formation (clonal survival); format: cell-based, human; conditions: Homo sapiens, LNCaP; 0.5 nM
Text: (§1) FIG. 3A. […] Ns, not significant. FIG. 3B. […] Ns, not significant. FIG. 3C. […] P values by ANOVA;

VCaP cells = assay: Colony formation (clonal survival); format: cell-based, human; conditions: Homo sapiens, VCaP; 0.5 nM
Text: as §1

In the case of `C[C@]12CC[C@H]3[C@@H](CCC4=CC(=O)CC[C@@]43C)[C@@H]1CC[C@@H]2O` [transdermal T], the “grade 3 or 4 toxicities, pain flares” value (patients with CRPC; 7.5 mg/day) is given as “no grade 3 or 4 toxicities and no pain flares”, the objective responses (patients with CRPC; 7.5 mg/day) is given as “No objective responses” and the “patients with >50% PSA decline” value (patients with CRPC; 12 patients) is given as “one”. For the same compound, the “patients with at least 20% PSA declines” value (patients with CRPC; 12 patients) was “Four”, the “median concentration of T” value ([1]; 2.5 mg/day transdermal) was 305 ng/dL and the “median concentration of T” value ([1]; 5.0 mg/day transdermal) was 308 ng/dL. For the same compound, the “median concentration of T” value ([1]; 7.5 mg/day transdermal) was 297 ng/dL, the “patients with a decrease in PSA” value ([1]; 15 patients) was 20% and the “grade 3 or 4 toxicities” value ([1]; in vivo) was “no grade 3 or 4 toxicities were observed with the exception of one person”. For the same compound, the “largest decrease in PSA” value ([1]; in vivo) was 43% and the “patients with symptomatic progression” value ([1]; in vivo) was “one”.
In the case of `CC1(C)NC(=O)N(c2ccc([N+](=O)[O-])c(C(F)(F)F)c2)C1=O` [nilutamide], the “PSA decline upon re-challenge” value [2] was 44.3%.
With `C[C@]12CC[C@H](O)CC1=CC[C@@H]1[C@@H]2CC[C@]2(C)C(c3cccnc3)=CC[C@@H]12` [Abi] the “patients with >50% PSA decline on second line therapy” value [2] was “Four of 4” and the “PSA50 response to re-exposure (re-challenge) post-BAT” value [3] was 21%.
In the case of `C[C@]12CC[C@H]3[C@@H](CCC4=CC(=O)CC[C@@]43C)[C@@H]1CC[C@@H]2O` [testosterone], the “clinical improvement (pain, prostate size, phosphatases)” value ([4]; Brendler et al. 1949, parenteral) is given as “considerable improvement in several patients”, the “patients with subjective improvement” value ([4]; long-term castrate group, at least one month) is given as 4 of 5 and the “patients with decline of acid phosphatase” value ([4]; longer course of testosterone) is given as 2/5. The “abundance of polyamine precursors ornithine and SAM in tumors” value [5] was “decreased” and the “abundance of polyamines putrescine and spermine in tumors” value [5] was “increased”.
For `CC(O)(CS(=O)(=O)c1ccc(F)cc1)C(=O)Nc1ccc(C#N)c(C(F)(F)F)c1` (stereo not shown) [bicalutamide], the “PSA decline upon re-challenge” value [2] was 30.9%.
For `N=C(N)c1cccc2c1CC/C2=N\N=C(N)N` [SAM486], the “rescue of MYC in cells treated with SPA and DFMO” value [6] was “phenocopied”.
In the case of `C[C@]1(O)CC[C@H]2[C@@H]3CCC4=CC(=O)CCC4=C3C=C[C@@]21C` [R1881, 17α-methyl-19-nor-δ9,11-testosterone], the “putrescine, intracellular and extracellular” value (LNCaP cells [7]) was “Marked intracellular and extracellular accumulation”, the inhibition at 0.0005 µM (LNCaP cells [8]) was ~15% and the inhibition at 0.0005 µM (VCaP cells) was ~15%.
For `C[S+](CC[C@H](N)C(=O)O)C[C@H]1O[C@@H](n2cnc3c(N)ncnc32)[C@H](O)[C@@H]1O` (stereo partly shown) [SAM, S-adenosylmethionine], the “rescue of MYC in cells treated with SPA and DFMO” value [6] was “sufficient to rescue MYC”.
